According to ChEMBL document CHEMBL5154644, “Design, Synthesis, and Structure-Activity Relationship Optimization of Pyrazolopyrimidine Amide Inhibitors of Phosphoinositide 3-Kinase γ (PI3Kγ)” (J Med Chem, 2022):

Legend:
[1] = target: T1, Phosphatidylinositol 4,5-bisphosphate 3-kinase catalytic subunit gamma isoform (Homo sapiens, UniProt P48736); experiment: Inhibition of PI3Kgamma (unknown origin) in […] stimulated human THP-1 cells assessed as reduction in Akt phosphorylation level at Ser473 residue preincubated for 60 mins followed by rhMCP-1 stimulation and measured after 2 mins by AlphaLisa assay; format: cell-based
[2] = target: T1, Phosphatidylinositol 4,5-bisphosphate 3-kinase catalytic subunit gamma isoform; experiment: Inhibition of PI3Kgamma (unknown origin) using PIP2 as substrate preincubated for 1 hr followed by substrate addition and measured after 60 mins in presence of ATP by ADP-glo assay
[3] = Metabolic stability in human hepatocytes assessed as intrinsic clearance per 10^6 cells at 0.5 uM by LC-MS/MS analysis; format: ADME, cell-based, Hepatocyte; conditions: read-out: CLH
[4] = Metabolic stability in rat hepatocyte assessed as intrinsic clearance per 10^8 cells at 0.5 uM by LC-MS/MS analysis; format: ADME, cell-based; conditions: hepatocytes
[5] = target: T1, Phosphatidylinositol 4,5-bisphosphate 3-kinase catalytic subunit gamma isoform; experiment: Inhibition of PI3Kgamma in SDF-1alpha stimulated human whole blood assessed as reduction in phospho-AKT kinase activity preincubated for 1 hr followed by SDF-1alpha stimulation and measured after 2 mins by flow cytometric analysis; format: tissue-based
[6] = target: Phosphatidylinositol 4,5-bisphosphate 3-kinase catalytic subunit alpha isoform (Homo sapiens, UniProt P42336); experiment: Inhibition of PI3Kalpha (unknown origin) using PIP2 as substrate preincubated for 1 hr followed by substrate addition and measured after 60 mins in presence of ATP by ADP-glo assay
[7] = target: T2, Phosphatidylinositol 4,5-bisphosphate 3-kinase catalytic subunit delta isoform (Homo sapiens, UniProt O00329); experiment: Inhibition of PI3Kdelta (unknown origin) using PIP2 as substrate preincubated for 1 hr followed by substrate addition and measured after 60 mins in presence of ATP by ADP-glo assay
T2 sequence (O00329 whole entry): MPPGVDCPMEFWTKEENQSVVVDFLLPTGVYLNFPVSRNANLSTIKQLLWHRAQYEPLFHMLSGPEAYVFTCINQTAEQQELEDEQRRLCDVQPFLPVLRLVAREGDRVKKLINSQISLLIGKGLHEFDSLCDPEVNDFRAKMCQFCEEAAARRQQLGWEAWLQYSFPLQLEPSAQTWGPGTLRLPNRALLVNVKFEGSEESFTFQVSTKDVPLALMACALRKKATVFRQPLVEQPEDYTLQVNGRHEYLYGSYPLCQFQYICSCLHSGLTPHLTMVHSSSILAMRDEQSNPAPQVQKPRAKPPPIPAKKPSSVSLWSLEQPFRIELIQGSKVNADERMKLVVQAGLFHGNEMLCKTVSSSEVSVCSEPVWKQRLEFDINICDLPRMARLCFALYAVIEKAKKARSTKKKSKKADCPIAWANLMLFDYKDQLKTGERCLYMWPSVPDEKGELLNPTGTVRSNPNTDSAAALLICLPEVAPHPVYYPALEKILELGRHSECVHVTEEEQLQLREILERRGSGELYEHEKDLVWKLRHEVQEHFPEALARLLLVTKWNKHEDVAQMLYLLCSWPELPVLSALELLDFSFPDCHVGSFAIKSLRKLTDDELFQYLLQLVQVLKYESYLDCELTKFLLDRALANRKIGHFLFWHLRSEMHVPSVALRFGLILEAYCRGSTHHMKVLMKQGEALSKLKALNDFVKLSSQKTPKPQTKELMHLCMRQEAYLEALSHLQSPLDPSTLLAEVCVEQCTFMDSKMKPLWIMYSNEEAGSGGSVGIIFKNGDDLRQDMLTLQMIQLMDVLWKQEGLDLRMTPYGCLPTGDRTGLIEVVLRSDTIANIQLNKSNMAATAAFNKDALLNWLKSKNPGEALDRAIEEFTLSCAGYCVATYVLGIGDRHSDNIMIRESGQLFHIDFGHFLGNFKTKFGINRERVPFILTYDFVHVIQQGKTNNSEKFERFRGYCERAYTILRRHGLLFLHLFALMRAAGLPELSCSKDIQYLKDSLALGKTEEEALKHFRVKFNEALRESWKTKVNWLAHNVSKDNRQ

Homo sapiens [8] = organism: Homo sapiens; experiment: Selectivity ratio of IC50 for inhibition of PI3Kalpha (unknown origin) to IC50 for inhibition of PI3Kgamma (unknown origin)
CYP3A4 = CYP3A4 (Homo sapiens, UniProt P08684); experiment: in vitro; conditions: human liver microsomes, probe midazolam
Description: Time dependent inhibition of CYP3A4 in human liver microsomes at 10 uM using midazolam as substrate preincubated for 30 mins in presence of NADPH by LC/MS/MS analysis relative to control

[9] = Hepatic clearance in Sprague-Dawley rat by LC-MS/MS analysis; format: ADME; conditions: in vivo
[10] = target: Phosphatidylinositol 4,5-bisphosphate 3-kinase catalytic subunit beta isoform (Homo sapiens, UniProt P42338); experiment: Inhibition of PI3Kbeta (unknown origin) using PIP2 as substrate preincubated for 1 hr followed by substrate addition and measured after 60 mins in presence of ATP by ADP-glo assay
Homo sapiens [11] = organism: Homo sapiens; experiment: Selectivity ratio of IC50 for inhibition of PI3Kbeta (unknown origin) to IC50 for inhibition of PI3Kgamma (unknown origin)
Homo sapiens [12] = organism: Homo sapiens; experiment: Selectivity ratio of IC50 for inhibition of PI3Kdelta (unknown origin) to IC50 for inhibition of PI3Kgamma (unknown origin)
hERG [13] = target: T3, hERG (Homo sapiens, UniProt Q12809); experiment: Inhibition of human ERG at 10 uM by patch clamp assay relative to control; format: toxicity
hERG [14] = target: T3, hERG; experiment: Inhibition of human ERG at 3 uM by patch clamp assay relative to control; format: toxicity

CYP3A4, sequence (P08684 whole entry): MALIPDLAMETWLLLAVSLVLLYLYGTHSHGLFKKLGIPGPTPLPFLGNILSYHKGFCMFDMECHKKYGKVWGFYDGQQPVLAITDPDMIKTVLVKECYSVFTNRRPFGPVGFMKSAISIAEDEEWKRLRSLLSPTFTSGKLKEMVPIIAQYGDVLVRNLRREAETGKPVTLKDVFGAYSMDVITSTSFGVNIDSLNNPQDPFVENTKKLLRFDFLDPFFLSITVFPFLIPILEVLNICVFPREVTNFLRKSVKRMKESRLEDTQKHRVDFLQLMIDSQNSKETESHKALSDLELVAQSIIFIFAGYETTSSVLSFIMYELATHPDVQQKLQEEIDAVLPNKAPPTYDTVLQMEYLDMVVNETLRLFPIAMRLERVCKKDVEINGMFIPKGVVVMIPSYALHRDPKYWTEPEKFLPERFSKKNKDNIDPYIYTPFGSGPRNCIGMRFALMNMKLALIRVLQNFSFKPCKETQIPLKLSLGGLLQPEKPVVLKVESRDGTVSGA
T3 sequence (Q12809 whole entry): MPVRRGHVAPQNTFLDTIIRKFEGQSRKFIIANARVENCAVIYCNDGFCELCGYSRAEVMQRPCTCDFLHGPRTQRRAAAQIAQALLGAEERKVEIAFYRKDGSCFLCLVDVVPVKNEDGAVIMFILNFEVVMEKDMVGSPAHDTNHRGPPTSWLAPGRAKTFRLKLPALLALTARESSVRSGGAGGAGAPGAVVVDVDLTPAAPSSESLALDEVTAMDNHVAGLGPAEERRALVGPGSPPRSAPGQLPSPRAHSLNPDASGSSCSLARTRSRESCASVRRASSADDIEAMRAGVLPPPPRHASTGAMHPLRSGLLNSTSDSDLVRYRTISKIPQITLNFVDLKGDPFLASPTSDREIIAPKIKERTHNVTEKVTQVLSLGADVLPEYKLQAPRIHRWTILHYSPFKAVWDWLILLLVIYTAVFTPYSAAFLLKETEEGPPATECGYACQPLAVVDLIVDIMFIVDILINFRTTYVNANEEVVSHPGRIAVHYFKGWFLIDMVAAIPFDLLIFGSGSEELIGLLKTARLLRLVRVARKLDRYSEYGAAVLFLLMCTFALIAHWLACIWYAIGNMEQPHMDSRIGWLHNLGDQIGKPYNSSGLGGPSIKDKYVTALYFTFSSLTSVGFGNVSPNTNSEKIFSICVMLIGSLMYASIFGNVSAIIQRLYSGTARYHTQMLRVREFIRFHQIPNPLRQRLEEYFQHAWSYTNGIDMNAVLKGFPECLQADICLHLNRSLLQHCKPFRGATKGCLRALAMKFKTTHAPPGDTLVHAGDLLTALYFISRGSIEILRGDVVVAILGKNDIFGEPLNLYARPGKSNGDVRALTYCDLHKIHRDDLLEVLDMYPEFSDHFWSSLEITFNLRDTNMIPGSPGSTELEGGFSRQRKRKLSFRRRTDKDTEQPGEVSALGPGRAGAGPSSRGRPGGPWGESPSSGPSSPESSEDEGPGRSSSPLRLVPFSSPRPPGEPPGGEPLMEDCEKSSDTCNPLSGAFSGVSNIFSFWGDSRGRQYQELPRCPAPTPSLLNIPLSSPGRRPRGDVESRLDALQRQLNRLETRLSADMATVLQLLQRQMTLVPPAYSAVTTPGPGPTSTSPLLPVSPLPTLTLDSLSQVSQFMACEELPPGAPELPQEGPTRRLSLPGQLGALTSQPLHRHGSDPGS
Phosphatidylinositol 4,5-bisphosphate 3-kinase catalytic subunit alpha isoform, sequence (P42336 whole entry, canonical isoform): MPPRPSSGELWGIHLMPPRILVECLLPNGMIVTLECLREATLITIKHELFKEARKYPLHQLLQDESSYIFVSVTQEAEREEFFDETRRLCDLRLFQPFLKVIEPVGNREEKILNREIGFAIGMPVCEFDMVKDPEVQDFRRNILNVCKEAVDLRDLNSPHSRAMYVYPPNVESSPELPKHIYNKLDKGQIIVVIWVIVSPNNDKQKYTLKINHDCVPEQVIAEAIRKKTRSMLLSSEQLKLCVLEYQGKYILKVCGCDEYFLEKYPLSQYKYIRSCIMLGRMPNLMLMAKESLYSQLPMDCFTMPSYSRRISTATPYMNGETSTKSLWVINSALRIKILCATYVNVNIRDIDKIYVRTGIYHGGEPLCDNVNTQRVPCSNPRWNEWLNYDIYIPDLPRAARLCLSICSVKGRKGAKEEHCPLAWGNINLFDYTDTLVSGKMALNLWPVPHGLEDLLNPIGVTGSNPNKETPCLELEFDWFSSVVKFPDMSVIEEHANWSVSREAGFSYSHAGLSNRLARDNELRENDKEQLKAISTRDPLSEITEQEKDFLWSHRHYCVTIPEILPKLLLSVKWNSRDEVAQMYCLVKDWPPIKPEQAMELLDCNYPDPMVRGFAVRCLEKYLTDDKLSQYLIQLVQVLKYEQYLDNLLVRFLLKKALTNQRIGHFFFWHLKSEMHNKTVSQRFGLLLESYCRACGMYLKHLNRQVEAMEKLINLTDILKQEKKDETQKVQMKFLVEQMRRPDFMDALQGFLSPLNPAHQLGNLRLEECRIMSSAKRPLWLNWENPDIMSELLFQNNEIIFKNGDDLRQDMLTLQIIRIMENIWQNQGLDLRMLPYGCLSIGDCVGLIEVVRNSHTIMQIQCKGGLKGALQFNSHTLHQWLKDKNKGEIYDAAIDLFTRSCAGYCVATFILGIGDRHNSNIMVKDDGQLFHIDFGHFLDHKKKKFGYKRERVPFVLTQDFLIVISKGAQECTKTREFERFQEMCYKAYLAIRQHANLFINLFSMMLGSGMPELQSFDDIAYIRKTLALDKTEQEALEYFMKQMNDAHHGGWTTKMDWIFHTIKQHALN
Phosphatidylinositol 4,5-bisphosphate 3-kinase catalytic subunit beta isoform, sequence (P42338 whole entry, canonical isoform): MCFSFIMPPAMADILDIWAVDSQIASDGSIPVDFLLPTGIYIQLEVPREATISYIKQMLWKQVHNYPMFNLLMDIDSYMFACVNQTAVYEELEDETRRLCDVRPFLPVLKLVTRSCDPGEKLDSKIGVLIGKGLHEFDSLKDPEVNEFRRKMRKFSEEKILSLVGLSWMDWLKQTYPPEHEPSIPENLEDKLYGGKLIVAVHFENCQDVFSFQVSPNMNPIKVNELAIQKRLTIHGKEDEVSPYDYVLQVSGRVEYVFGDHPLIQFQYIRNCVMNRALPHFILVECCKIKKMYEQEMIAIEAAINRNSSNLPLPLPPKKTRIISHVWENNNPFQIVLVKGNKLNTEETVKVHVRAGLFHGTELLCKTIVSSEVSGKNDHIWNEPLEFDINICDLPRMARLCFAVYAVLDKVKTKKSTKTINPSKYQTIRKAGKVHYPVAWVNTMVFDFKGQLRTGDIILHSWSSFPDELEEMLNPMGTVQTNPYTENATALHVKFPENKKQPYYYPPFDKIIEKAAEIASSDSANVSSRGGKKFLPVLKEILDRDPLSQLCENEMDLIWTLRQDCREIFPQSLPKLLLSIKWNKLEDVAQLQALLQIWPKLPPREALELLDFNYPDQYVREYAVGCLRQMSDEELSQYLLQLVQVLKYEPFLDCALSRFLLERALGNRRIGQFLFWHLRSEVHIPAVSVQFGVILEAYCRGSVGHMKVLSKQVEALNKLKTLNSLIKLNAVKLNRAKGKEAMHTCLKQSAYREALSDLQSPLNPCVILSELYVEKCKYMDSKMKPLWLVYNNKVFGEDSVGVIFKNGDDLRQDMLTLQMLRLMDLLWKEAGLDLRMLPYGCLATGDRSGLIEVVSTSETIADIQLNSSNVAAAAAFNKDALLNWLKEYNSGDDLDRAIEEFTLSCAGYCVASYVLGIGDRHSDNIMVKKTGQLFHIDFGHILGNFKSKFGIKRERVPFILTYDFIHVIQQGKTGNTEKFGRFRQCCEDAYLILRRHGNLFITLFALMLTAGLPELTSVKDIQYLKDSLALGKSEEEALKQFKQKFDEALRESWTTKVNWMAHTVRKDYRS
T1 sequence (P48736 whole entry, canonical isoform): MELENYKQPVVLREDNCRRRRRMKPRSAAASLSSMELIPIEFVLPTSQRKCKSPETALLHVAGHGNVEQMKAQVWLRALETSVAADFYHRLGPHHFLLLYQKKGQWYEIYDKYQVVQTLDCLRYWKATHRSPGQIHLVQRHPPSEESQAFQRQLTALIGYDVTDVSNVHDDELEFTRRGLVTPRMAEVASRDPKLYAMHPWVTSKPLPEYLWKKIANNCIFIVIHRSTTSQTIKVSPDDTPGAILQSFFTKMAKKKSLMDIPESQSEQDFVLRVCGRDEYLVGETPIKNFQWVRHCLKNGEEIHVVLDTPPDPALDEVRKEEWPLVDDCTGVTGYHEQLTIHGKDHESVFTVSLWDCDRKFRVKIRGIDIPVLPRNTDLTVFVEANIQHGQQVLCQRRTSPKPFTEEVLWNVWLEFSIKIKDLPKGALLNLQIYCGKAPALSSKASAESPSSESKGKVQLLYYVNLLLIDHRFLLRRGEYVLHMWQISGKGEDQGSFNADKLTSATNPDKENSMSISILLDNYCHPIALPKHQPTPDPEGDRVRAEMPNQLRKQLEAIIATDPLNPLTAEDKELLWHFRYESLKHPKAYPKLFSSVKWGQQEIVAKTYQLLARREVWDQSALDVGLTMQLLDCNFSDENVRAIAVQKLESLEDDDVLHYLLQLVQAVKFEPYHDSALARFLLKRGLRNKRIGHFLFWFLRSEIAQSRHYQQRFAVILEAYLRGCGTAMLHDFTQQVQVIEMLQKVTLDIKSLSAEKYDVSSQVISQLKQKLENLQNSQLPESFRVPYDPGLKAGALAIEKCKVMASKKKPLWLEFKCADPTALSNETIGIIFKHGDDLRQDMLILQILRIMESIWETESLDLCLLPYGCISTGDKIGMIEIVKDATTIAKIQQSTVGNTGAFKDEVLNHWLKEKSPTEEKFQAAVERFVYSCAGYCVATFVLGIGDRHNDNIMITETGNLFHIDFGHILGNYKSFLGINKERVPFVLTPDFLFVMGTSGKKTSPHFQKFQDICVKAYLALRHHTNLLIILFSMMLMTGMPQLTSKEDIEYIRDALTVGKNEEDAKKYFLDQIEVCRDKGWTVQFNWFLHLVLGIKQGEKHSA

C[C@@H](C1CC1)N1Cc2cc(-c3ccn4nc(N)c(C(=O)N[C@@H](CO)C5CC5)c4n3)cc(NS(C)(=O)=O)c2C1=O
IC50 [1]: 33 nM | IC50 [2]: 0.8 nM | hepatocyte CLint at 0.5 µM [3]: 4.09 µL/min/1e6 cells | hepatocyte intrinsic clearance [4]: < 1.2 µL/min | IC50 [5]: 260 nM | IC50 [6]: 1200 nM | IC50 [7]: 991 nM | Ratio IC50 (Homo sapiens [8]): 1470 | inhibition at 30 min, 10 µM (CYP3A4): 35%

C[C@@H](C1CC1)N1Cc2cc(-c3ccn4nc(N)c(C(=O)N[C@@H](CO)C5CC5)c4n3)cc(OC(F)(F)F)c2C1=O
CLH [9]: 21.7 mL/min/kg | IC50 [1]: 72 nM | IC50 [2]: 2.8 nM | hepatocyte CLint at 0.5 µM [3]: 4.05 µL/min/1e6 cells | hepatocyte intrinsic clearance [4]: < 1.2 µL/min | IC50 [5]: 750 nM | IC50 [6]: 2060 nM | IC50 [7]: 1790 nM | Ratio IC50 (Homo sapiens [8]): 733 | IC50 [10]: 8550 nM | Ratio IC50 (Homo sapiens [11]): 3040 | inhibition at 30 min, 10 µM (CYP3A4): 6%

C[C@H](N1Cc2cc(-c3ccn4nc(N)c(C(=O)N[C@@H](CO)C5CC5)c4n3)cc(NS(C)(=O)=O)c2C1=O)C(F)(F)F
IC50 [1]: 72 nM | IC50 [2]: 3.5 nM | hepatocyte CLint at 0.5 µM [3]: 6.31 µL/min/1e6 cells | hepatocyte intrinsic clearance [4]: 2.48 µL/min | IC50 [5]: 1300 nM | IC50 [6]: 1640 nM | IC50 [7]: 825 nM | Ratio IC50 (Homo sapiens [8]): 474 | Ratio IC50 (Homo sapiens [12]): 238

C[C@H](N1Cc2cc(-c3ccn4nc(N)c(C(=O)N[C@@H](CO)C5CC5)c4n3)cc(C3CC3)c2C1=O)C(F)(F)F
IC50 [1]: 80 nM | IC50 [2]: 2.5 nM | hepatocyte CLint at 0.5 µM [3]: 13.3 µL/min/1e6 cells | hepatocyte intrinsic clearance [4]: 1.69 µL/min | IC50 [5]: 1300 nM | IC50 [6]: > 10000 nM | IC50 [7]: 3980 nM | Ratio IC50 (Homo sapiens [8]): > 3970 | Ratio IC50 (Homo sapiens [12]): 1580

C[C@@H](C1CC1)N1Cc2cc(-c3ccn4nc(N)c(C(=O)N[C@@H](CO)C5CC5)c4n3)cc(OC(F)F)c2C1=O
CLH [9]: 15 mL/min/kg | IC50 [1]: 48 nM | IC50 [2]: 3.1 nM | hepatocyte CLint at 0.5 µM [3]: 4.35 µL/min/1e6 cells | hepatocyte intrinsic clearance [4]: 8.42 µL/min | IC50 [5]: 510 nM | IC50 [6]: 1910 nM | IC50 [7]: 3110 nM | Ratio IC50 (Homo sapiens [8]): 611 | IC50 [10]: 29400 nM | Ratio IC50 (Homo sapiens [11]): 9400 | inhibition at 10 µM (hERG [13]): 21% | inhibition at 30 min, 10 µM (CYP3A4): 18%

C[C@H](N1Cc2cc(-c3ccn4nc(N)c(C(=O)N[C@@H](CO)C5CC5)c4n3)cc(OC(F)F)c2C1=O)C(F)(F)F
IC50 [1]: 68 nM | IC50 [2]: 3.4 nM | hepatocyte CLint at 0.5 µM [3]: 7.17 µL/min/1e6 cells | hepatocyte intrinsic clearance [4]: 8.28 µL/min | IC50 [5]: 600 nM | IC50 [6]: 1320 nM | IC50 [7]: 419 nM | Ratio IC50 (Homo sapiens [8]): 385 | Ratio IC50 (Homo sapiens [12]): 122

C[C@H](N1Cc2cc(-c3ccn4nc(N)c(C(=O)N[C@H]5CC[C@@](C)(O)CC5)c4n3)cc(NS(C)(=O)=O)c2C1=O)C(F)(F)F
IC50 [1]: 31 nM | IC50 [2]: 3.2 nM | hepatocyte CLint at 0.5 µM [3]: 2.44 µL/min/1e6 cells | hepatocyte intrinsic clearance [4]: 3.38 µL/min | IC50 [5]: 800 nM | IC50 [6]: 194 nM | IC50 [7]: 146 nM | Ratio IC50 (Homo sapiens [8]): 61 | Ratio IC50 (Homo sapiens [12]): 46

C[C@@H](C1CC1)N1Cc2cc(-c3ccn4nc(N)c(C(=O)N[C@H]5CC[C@](C)(O)CC5)c4n3)cc(NS(C)(=O)=O)c2C1=O
CLH [9]: 30 mL/min/kg | IC50 [1]: 22 nM | IC50 [2]: 0.9 nM | hepatocyte CLint at 0.5 µM [3]: 3.39 µL/min/1e6 cells | hepatocyte intrinsic clearance [4]: 8.24 µL/min | IC50 [5]: 420 nM | IC50 [6]: 326 nM | IC50 [7]: 268 nM | Ratio IC50 (Homo sapiens [8]): 362 | IC50 [10]: 7570 nM | Ratio IC50 (Homo sapiens [11]): 8410 | inhibition at 30 min, 10 µM (CYP3A4): 12%

C[C@@H](C1CC1)N1Cc2cc(-c3ccn4nc(N)c(C(=O)N[C@H]5CC[C@](O)(C(F)(F)F)CC5)c4n3)cc(NS(C)(=O)=O)c2C1=O
CLH [9]: 23.3 mL/min/kg | IC50 [1]: 52 nM | IC50 [2]: 2.1 nM | hepatocyte CLint at 0.5 µM [3]: 1.9 µL/min/1e6 cells | hepatocyte intrinsic clearance [4]: 11 µL/min | IC50 [5]: 210 nM | IC50 [6]: 4030 nM | IC50 [7]: 1060 nM | Ratio IC50 (Homo sapiens [8]): 1880 | IC50 [10]: 9780 nM | Ratio IC50 (Homo sapiens [11]): 4560 | inhibition at 3 µM (hERG [14]): 45% | inhibition at 10 µM (hERG [13]): 68% | inhibition at 30 min, 10 µM (CYP3A4): 17%

C[C@H](N1Cc2cc(-c3ccn4nc(N)c(C(=O)N[C@@H](CO)C5CC5)c4n3)cc(Cl)c2C1=O)C(F)(F)F
IC50 [1]: 83 nM | IC50 [2]: 3.1 nM | hepatocyte CLint at 0.5 µM [3]: 3.18 µL/min/1e6 cells | hepatocyte intrinsic clearance [4]: 2.98 µL/min | IC50 [5]: 600 nM | IC50 [6]: > 10000 nM | IC50 [7]: 4640 nM | Ratio IC50 (Homo sapiens [8]): > 3140 | Ratio IC50 (Homo sapiens [12]): 1460

C[C@@H](C1CC1)N1Cc2cc(-c3ccn4nc(N)c(C(=O)NC5CC5)c4n3)cc(C(F)(F)F)c2C1=O
CLH [9]: 5 mL/min/kg | IC50 [1]: 103 nM | IC50 [2]: 3.6 nM | hepatocyte CLint at 0.5 µM [3]: < 1.2 µL/min/1e6 cells | hepatocyte intrinsic clearance [4]: < 1.2 µL/min | IC50 [6]: 1580 nM | IC50 [7]: 1950 nM | Ratio IC50 (Homo sapiens [8]): 443 | Ratio IC50 (Homo sapiens [12]): 547 | inhibition at 30 min, 10 µM (CYP3A4): 7%
